Assay results taken from the NIST ThermoML archive (doi:10.1016/j.jct.2007.02.002).
± gives the expanded uncertainty stated by the source.

Conditions: 101.33 kPa, Liquid; for speed of sound: Sing-around technique in a fixed-path interferometer

mass density (288.15 K) [kg/m3] | speed of sound (288.15 K) [m/s] | mass density (293.15 K) [kg/m3] | speed of sound (293.15 K) [m/s] | mass density (298.15 K) [kg/m3] | speed of sound (298.15 K) [m/s] | mass density (303.15 K) [kg/m3] | speed of sound (303.15 K) [m/s] | mass density (308.15 K) [kg/m3] | speed of sound (308.15 K) [m/s] | Compound
745.79 ± 0.27 | 1082.4 ± 1.2 | 740.6 ± 0.28 | 1059.4 ± 1.2 | 735.35 ± 0.28 | 1036.1 ± 1.2 | 730.06 ± 0.28 | 1013 ± 1.2 | 724.73 ± 0.29 | 990.1 ± 1.1 | COC(C)(C)C [2-methoxy-2-methylpropane]
813.24 ± 0.4 | 1273.7 ± 1.7 | 809.48 ± 0.4 | 1257 ± 1.7 | 805.67 ± 0.4 | 1239.8 ± 1.7 | 801.85 ± 0.4 | 1222.7 ± 1.7 | 797.99 ± 0.41 | 1205.9 ± 1.7 | CCCCO [butan-1-ol]
663.87 ± 0.68 | 1121.4 ± 1.3 | 659.44 ± 0.69 | 1099 ± 1.3 | 654.95 ± 0.7 | 1076.3 ± 1.2 | 650.4 ± 0.7 | 1053.6 ± 1.2 | 645.82 ± 0.71 | 1031.1 ± 1.2 | CCCCCC [hexane]
